We go through 16 molecules from patent US5861388A, “Steroid inhibitors of estrone sulfatase and associated pharmaceutical compositions and methods of use” (SRI International, priority 1997, dated 1999).

One test deals with T1, estrone sulfatase (Homo sapiens, UniProt P08842).
T1 construct: Estrone Sulfatase Assay with Intact Cells; host or cells: MCF-7
T1 sequence (P08842 22-583): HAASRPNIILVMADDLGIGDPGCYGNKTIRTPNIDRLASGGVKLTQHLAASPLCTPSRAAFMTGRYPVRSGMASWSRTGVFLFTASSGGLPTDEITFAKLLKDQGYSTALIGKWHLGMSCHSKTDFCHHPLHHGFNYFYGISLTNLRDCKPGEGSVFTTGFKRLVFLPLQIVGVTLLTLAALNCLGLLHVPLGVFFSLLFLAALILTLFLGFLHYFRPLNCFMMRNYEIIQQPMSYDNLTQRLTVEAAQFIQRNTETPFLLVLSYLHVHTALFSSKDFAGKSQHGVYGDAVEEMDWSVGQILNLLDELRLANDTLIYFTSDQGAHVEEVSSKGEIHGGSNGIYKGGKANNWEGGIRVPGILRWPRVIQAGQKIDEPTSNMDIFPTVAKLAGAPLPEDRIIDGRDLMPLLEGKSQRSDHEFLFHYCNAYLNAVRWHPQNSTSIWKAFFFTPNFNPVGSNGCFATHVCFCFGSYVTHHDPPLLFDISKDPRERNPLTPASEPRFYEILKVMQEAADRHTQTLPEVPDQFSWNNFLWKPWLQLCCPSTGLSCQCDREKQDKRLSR
The test is described as follows: Estrone sulfatase assay with intact MCF-7 cells. It counts as cell-based. The settings on record: concentration giving 50 % inhibition, 24 h, 3H-estrone sulfate substrate. The text has this:
Test for the Effects of Inhibitors on Estrone Sulfatase Activity in MCF-7 Cells:
Reagents: MCF-7 human breast cancer cells were supplied by the American Type Culture Collection, Rockville, Md. Eagle's minimum essential medium (MEM) and fetal calf serum (FCS) were purchased from Sigma Chemical Company, St. Louis, Mo. [4-^14 C] Estrone, [6,7-^3 H] estradiol and [6,7-^3 H(N)] estrone sulfate were obtained from New England Nuclear Research Products, Boston, Mass.
Estrone Sulfatase Assay with Intact Cells. The procedure of Duncan et al., Cancer Res. 53:298-303 (1993) was followed. MCF-7 cells were seeded in 60×15 mm culture dishes at 1×10^5 cells/dish and maintained in 4.0 mL of MEM containing 2 mM of glutamine and 5% of FCS. The cells were incubated at 37° C. in a 5% CO2 /95% air atmosphere and 100% humidity, with the medium changed every third day. When the cells reach 80% confluency, the intact monolayers were washed once with Earl's balanced salt solution and incubated in 4.0 mL of serum-free MEM containing the substrate (^3 H-estrone sulfate, 7 pmol, 9×10^5 dpm) and inhibitor dissolved in ethanol or ethanol alone. The final ethanol concentration was always be below 1%. The incubation continued for 24 h. 2.0 mL of medium was transferred into separate tubes containing 7×10^3 dpm of ^14 C-estrone. The mixture was vortexed vigorously for 60 s with 5 mL of toluene. After phase separation, 2.0 mL of the organic phase was transferred into a counting vial for scintillation counting. The amount of estrone sulfate hydrolyzed was calculated on the basis of the ^3 H counts obtained, with the added ^14 C-estrone used to correct for recovery through the extraction procedure.
The cells remaining in each culture dish were washed with saline once and then scraped with 1.0 mL of 0.5N NaOH into 10×75 mm tubes. The cell pellets in each tube were incubated at 50° C. for 20 min. to ensure that digestion was complete and that all proteins became soluble. An aliquot was then taken for protein determination by Lowry's method (Lowry et al., J. Biol. Chem. 193:265-275 (1951)).
The amount of estrone sulfate hydrolyzed with the inhibitor relative to that without the inhibitor was evaluated to give the percentage of inhibition.

Test [1] deals with MCF-7 human breast carcinoma xenografts. The test is described as follows: Tumor growth inhibition assay, MCF-7 human breast carcinoma xenografts in athymic mice. Type of test: in vivo, human MCF-7 xenografts in female BALB/c athymic mice. Particulars: i.p. 1.0 mg/mouse/day for 5 weeks, mean ± S.E. The source says: In Vivo Efficacy Studies Using MCF-7 Cells in Nude Mice: For in vivo evaluation, human xenografts were used in nude (athymic) mice, in the context of a solid tumor assay. MCF-7 human breast carcinomas in nude mice were used as the model for evaluating the estrone sulfatase inhibitors. The protocol followed was essentially that of Yue et al., J. Steroid Biochem. 44:671-673 (1993). Because MCF-7 cells are known to require supplementation with estradiol to sustain progressive growth in athymic nude mice (Soule et al., Cancer Lett. 10:177-189 (1980)), estrone sulfate was used for supplemental estrogen in the model studies. The enzyme inhibitors were administered by intravenous injection, oral gavage, and intraperitoneal administration, and comparative efficacy of the various compounds were evaluated using these different routes. Female BALB/c athymic mice 4-6 weeks of age were supplied by Charles River Breeding Laboratories, Boston, Mass. MCF-7 cells for the in vitro cell growth inhibition assay were obtained from the American Type Culture Collection, Rockville, Md., and cultured under the same conditions as described above for the sulfatase assay. Tumor Growth Inhibition Assay (see […] et al. (1990), supra, Yue et al., supra, and Noel et al., Biochem. Pharmacol. 43:1263-1267 (1992): The athymic mice were housed five per cage in controlled conditions of light and humidity and received food and water ad libitum throughout the entire experiment. The mice were quarantined for three working days before use in experiments. Prior to the initiation of the antitumor experiments, the mice were housed for seven days to familiarize them with the experimental environment. Temperature was maintained at 72±5° F., with relative humidity at 35-70% and a 12-h light/dark cycle. The mice were fed certified Purina rodent chow and drinking water ad libitum. The source water was recirculated, deionized, UV-treated, and filtered (5-μm filter). At the beginning of the experiment, all but five of the mice underwent oophorectomies to eliminate the endogenous level of estrogen. After all animals recovered from surgery, all mice in the study received 5 μmol of estrone sulfate daily via gavage or subcutaneous (sc) injection. The dosing of estrone sulfate was carried out throughout the entire experiment. Seven days after the animals began treatment with estrone sulfate, each mouse was be injected sc twice (once in each flank) with 2.5×10^6 MCF-7 cells suspended in 0.1 mL of serum-free tissue culture medium to induce tumor growth. The growth rate was determined by measuring the tumors with calipers weekly. Tumor volumes were calculated according to the formula 4/3πr1^2,r2, where r1 and r2 represent the tumor radii. When the average tumor volume per mouse reached approximately 200 mm^3, animals began to receive various doses of estrone sulfatase inhibitors dissolved in 0.1 mL of phosphate buffered saline (PBS). Dosing was by oral gavage, intravenous injection, and intraperitoneal injection; daily dosing with estrone sulfatase inhibitors was continued throughout the remainder of the experiment. The estrone sulfatase inhibitors not soluble in aqueous solutions were dissolved in EtOH first and diluted with PBS to obtain the appropriate concentrations of inhibitor but keeping the concentration of EtOH below 1%. For each test compound, the mice were divided into several groups with five animals in each group. These groups were as follows: intact control group receiving PBS alone; oophorectomized control group receiving PBS alone; and oophorectomized treatment groups receiving various doses of estrone sulfatase inhibitors. […] The change in tumor volume in the treatment groups relative to that in the oophorectomized control group gave the percent inhibition of a given inhibitor.

Take `C[C@]12CC[C@@H]3c4cc5c(cc4CC[C@H]3[C@@H]1CC[C@@H]2O)OS(=O)(=O)NC5` [Compound 11, 17β-Hydroxyestra-1,3,5(10)-trieno-[3,2,e]-3',4'-dihydro-1',2',3'-oxathiazine-2',2'-dioxide]: the half-inhibitory concentration (IC50) against estrone sulfatase was 820 nM.

In the case of `CC(=O)O[C@H]1CC[C@H]2[C@@H]3CCc4cc5c(cc4[C@H]3CC[C@]12C)C=NS(=O)(=O)O5` [Compound 4, 17β-acetoxyestra-1,3,5(10)-trieno-[3,2,e]-1',2',3'-oxathiazine-2',2'-dioxide], the half-maximal inhibitory concentration (IC50) on estrone sulfatase came to 12 nM.

In turn, `C[C@]12CC[C@@H]3c4ccc5c(c4CC[C@H]3[C@@H]1CCC2=O)C=NS(=O)(=O)O5` [Compound 13, estra-1,3,5(10)-trien-17-ono-[3,4,e]-1',2',3'-oxathiazine-2',2'-dioxide] had a 50% inhibitory concentration (IC50) at estrone sulfatase of 44 nM. On to `CC[C@H]1CC[C@H]2[C@@H]3CCc4cc5c(cc4[C@H]3CC[C@]12C)C=NS(=O)(=O)O5` [Compound 17, 19-norpregna-1,3,5(10)-trieno-[3,2,e]-1',2',3'-oxathiazine-2',2'-dioxide], for which half-maximal inhibition on estrone sulfatase (IC50) was put at 50 nM. Molecule `CC/C=C1/CC[C@H]2[C@@H]3CCc4cc5c(cc4[C@H]3CC[C@]12C)C=NS(=O)(=O)O5` [Compound 32, [17(20)Z]-Propylideneestra-1,3,5(10)-trieno-[3,2,e]-1',2',3'-oxathiazine-2',2'-dioxide] had an IC50 on estrone sulfatase of 58 nM.

For `C[C@H]1CC[C@H]2[C@@H]3CCc4cc5c(cc4[C@H]3CC[C@]12C)C=NS(=O)(=O)O5` [Compound 34, 17β-methylestra-1,3,5(10)-trieno-[3,2,e]-1',2',3'-oxathiazine-2',2'-dioxide], the half-maximal inhibitory concentration (IC50) at estrone sulfatase is 45 nM. With `C/C=C1/CC[C@H]2[C@@H]3CCc4cc5c(cc4[C@H]3CC[C@]12C)C=NS(=O)(=O)O5` [Compound 31, [17(20)Z]-norpregna-1,3,5(10),17(20)-tetraeno-[3,2,e]-1',2',3'-oxathiazine-2',2'-dioxide], at estrone sulfatase, the concentration for half-maximal inhibition (IC50) turned out to be 63 nM. The IC50 values of the last two molecules are within 1.5-fold of each other. As for `C[C@]12CC[C@@H]3c4cc5c(cc4CC[C@H]3[C@@H]1CC[C@@H]2O)OS(=O)(=O)N=C5` [Compound 10, 17β-hydroxyestra-1,3,5(10)-trieno-[3,2,e]-1',2',3'-oxathiazine-2',2'-dioxide], at estrone sulfatase, the IC50 turned out to be 20 nM.

The molecule `CCC[C@H]1CC[C@H]2[C@@H]3CCc4cc5c(cc4[C@H]3CC[C@]12C)C=NS(=O)(=O)O5` [Compound 35, 17β-Propylestra-1,3,5(10)-trieno-[3,2,e]-1',2',3'-oxathiazine-2',2'-dioxide] displayed an IC50 at estrone sulfatase of 120 nM. Take `CCCC[C@H]1CC[C@H]2[C@@H]3CCc4cc5c(cc4[C@H]3CC[C@]12C)C=NS(=O)(=O)O5` [Compound 36, 17β-19,21-dinorchola-1,3,5(10)-trieno-[3,2,e]-1',2',3'-oxathiazine-2',2'-dioxide]: the half-maximal inhibitory concentration (IC50) on estrone sulfatase was 590 nM. This IC50 is about 4.9-fold higher than that of the molecule before. On the same count and under the same terms, next, `CO[C@H]1CC[C@H]2[C@@H]3CCc4cc5c(cc4[C@H]3CC[C@]12C)C=NS(=O)(=O)O5` [Compound 43, 17β-methoxyestra-1,3,5(10)-trieno-[3,2,e]-1',2',3'-oxathiazine-2',2'-dioxide]: 50 nM. On to `C[C@]12CC[C@@H]3c4cc5c(cc4CC[C@H]3[C@@H]1CCC2=O)OS(=O)(=O)N=C5` [Compound 6, Estra-1,3,5(10)-trien-17-ono-[3,2,e]-1',2',3'-oxathiazine-2',2'-dioxide], for which the IC50 on estrone sulfatase came to 9.3 nM. Besides, the “Tumor Volume, week 0” value in test [1] (week 0, control 96.5 ± 5.2) was found to be 133.6 ± 15.9 mm^3. The “Tumor Volume, week 1” value in test [1] (week 1, control 184.1 ± 26.3) is 185.8 ± 16.5 mm^3. The “Tumor Volume, week 2” value in test [1] (week 2, control 191.2 ± 36.1) is 191.3 ± 25.1 mm^3. The “Tumor Volume, week 3” value in test [1] (week 3, control 232.9 ± 46.4) was 181.8 ± 27.8 mm^3. The “Tumor Volume, week 4” value in test [1] (week 4, control 299.5 ± 54.3) turned out to be 234.0 ± 50.7 mm^3. Further, the “Tumor Volume, week 5” value in test [1] (week 5, control 349.0 ± 46.2) is 285.8 ± 47.7 mm^3. Molecule `C=C1CC[C@H]2[C@@H]3CCc4cc5c(cc4[C@H]3CC[C@]12C)C=NS(=O)(=O)O5` [Compound 30, 17-methyleneestra-1,3,5(10)-trieno-[3,2,e]-1',2',3'-oxathiazine-2',2'-dioxide] registered an IC50 at estrone sulfatase of 72 nM. `CCC/C=C1/CC[C@H]2[C@@H]3CCc4cc5c(cc4[C@H]3CC[C@]12C)C=NS(=O)(=O)O5` [Compound 33, [17(20)Z]-19,21-dinorchola-1,3,5(10),17(20)-tetraeno-[3,2,e]-1',2',3'-oxathiazine-2',2'-dioxide] returned a 50% inhibitory concentration (IC50) against estrone sulfatase of 720 nM. With `C[C@]12CC[C@@H]3c4ccc5c(c4CC[C@H]3[C@@H]1CC[C@@H]2O)CNS(=O)(=O)O5` [Compound 14, 17β-Hydroxyestra-1,3,5(10)-trieno-[3,4,e]-3',4'-dihydro-1',2',3'-oxathiazine-2',2'-dioxide], the IC50 at estrone sulfatase is 15000 nM. This IC50 is about 21-fold higher than that of the molecule before.

Consider `C=C=C1CC[C@H]2[C@@H]3CCc4cc5c(cc4[C@H]3CC[C@]12C)C=NS(=O)(=O)O5` [Compound 40, 19-Norpregna-1,3,5(10),17(20),20-pentaeno-[3,2,e]-1',2',3'-oxathiazine-2',2'-dioxide], for which the IC50 against estrone sulfatase came to 74 nM. Compared with the last molecule, the IC50 is about 200-fold lower.
